Measured values: patent publication US11485727B2, “N-methyl, n-(6-(methoxy)pyridazin-3-yl) amine derivatives as autotaxin (ATX) modulators” (Boehringer Ingelheim International GmbH, priority 2019, dated 2022)

Target: ATX in human whole blood (Homo sapiens (Human), UniProt Q13822)
Assay: Assay B: Whole-Blood ATX Assay
Format: biochemical
Settings: not given

Compound | IC50
CC(=O)N1CC2CCC(C1)N2c1ccc(CNc2ccc(OCc3ccc(C(F)(F)F)nc3)nn2)cc1 [Example 2.19] | 2 nM

Same assay, conditions: human whole-blood, 1 h at 37° C., formation of 18:2 LPA; read-out: Human whole blood LPA IC50

IC50 | Compound
4.7 nM | CC(=O)N(C)C1CCN(c2ccc(CNc3ccc(OCc4ccc(C(F)(F)F)nc4)nn3)cc2)CC1 [Example 2.1, N-methyl-N-[1-(4-{[(6-{[6-(trifluoromethyl)pyridin-3-yl]methoxy}pyridazin-3-yl)amino]methyl}phenyl)piperidin-4-yl]acetamide]
4.7 nM | CC(=O)N1CCN(c2ccc(CNc3ccc(OCc4ccc(C(F)(F)F)nc4)nn3)cc2)CC1 [Example 2.2]
4.4 nM | CC(=O)N1CCN(c2ccc(CNc3ccc(OCc4ccc(C(F)F)nc4)nn3)cn2)CC1 [Example 2.3]
6.8 nM | CC(=O)N1CCN(c2ccc(CNc3ccc(OCc4ccc(C(F)F)nc4)nn3)nc2)CC1 [Example 2.4]
4 nM | CC(=O)N1CCN(c2ccc(CNc3ccc(OCc4ccc(C(F)(F)F)nc4)nn3)cn2)CC1 [Example 2.5]
3.2 nM | CC(=O)N1CC2CC1CN2c1ccc(CNc2ccc(OCc3ccc(C(F)F)nc3)nn2)cc1 (stereo not drawn) [Example 2.6]
7 nM | CC(=O)N1CCN(c2ccc(CNc3ccc(OCc4ccc(C(F)F)nc4)nn3)c(C(F)(F)F)c2)CC1 [Example 2.7]
2.4 nM | FC(F)(F)c1ccc(COc2ccc(NCc3ccc(N4CCN(C5COC5)CC4)cc3)nn2)cn1 [Example 2.8]
4.1 nM | CC(=O)N1CC2(C1)CN(c1ccc(CNc3ccc(OCc4ccc(C(F)(F)F)nc4)nn3)cc1F)C2 [Example 2.9]
2.2 nM | FC(F)c1ccc(COc2ccc(NCc3ccc(N4CCN(C5COC5)CC4)cc3)nn2)cn1 [Example 2.10]
4 nM | CC(=O)N[C@H]1[C@@H]2CN(c3ccc(CNc4ccc(OCc5ccc(C(F)(F)F)nc5)nn4)cc3)C[C@@H]21 [Example 2.11]
4.3 nM | CC(=O)N1CCN(c2ccc(CNc3ccc(OCc4cnc(C(F)F)c(F)c4)nn3)cc2)CC1 [Example 2.12]
2.8 nM | CC(=O)N1C[C@@H]2CN(c3ccc(CNc4ccc(OCc5ccc(C(F)F)nc5)nn4)cc3)C[C@@H]2C1 [Example 2.14]
9.3 nM | CC(=O)N1CCN(c2ccc(CNc3ccc(OCc4ccc(C(F)(F)F)nc4)nn3)nc2)CC1 [Example 2.15]
5.1 nM | CC(=O)N1CCC2(CC1)CN(c1ccc(CNc3ccc(OCc4ccc(C(F)F)nc4)nn3)nc1)C2 [Example 2.16]
3.5 nM | CC(=O)N1CCC2(CC1)CN(c1ccc(CNc3ccc(OCc4ccc(C(F)(F)F)nc4)nn3)cn1)C2 [Example 2.17]
4.1 nM | CC(=O)N1CCC2(CC1)CN(c1ccc(CNc3ccc(OCc4ccc(C(F)F)nc4)nn3)cn1)C2 [Example 2.18]
3.7 nM | CC(=O)N1CC2CCC1CN2c1ccc(CNc2ccc(OCc3ccc(C(F)(F)F)nc3)nn2)cc1 (stereo not drawn) [Example 2.20]
1.4 nM | CC(=O)N1CC2(C1)CN(c1ccc(CNc3ccc(OCc4ccc(C(F)(F)F)nc4)nn3)c(F)c1)C2 [Example 2.21]
3.9 nM | CC(=O)N1CCC2(CC1)CN(c1ccc(CNc3ccc(OCc4ccc(C(F)(F)F)nc4)nn3)cc1)C2 [Example 2.22]
3.6 nM | CC(=O)N1CC2CC1CN2c1ccc(CNc2ccc(OCc3ccc(C(F)(F)F)nc3)nn2)cc1 (stereo not drawn) [Example 2.23]

The remaining lines, values behind:

Compound | IC50
CC(=O)N1CC2(C1)CN(c1ccc(CNc3ccc(OCc4ccc(C(F)(F)F)nc4)nn3)cc1)C2 [Example 1.1, 1-(6-(4-(((6-((6-(trifluoromethyl)pyridin-3-yl)methoxy)pyridazin-3-yl)amino)methyl)phenyl)-2,6-diazaspiro[3.3]heptan-2-yl)ethan-1-one] | 1.7 nM
CC(=O)N1CC2(C1)CN(c1ccc(CNc3ccc(OCc4ccc(C(F)F)nc4)nn3)cc1)C2 [Example 1.2] | 1 nM
CC(=O)N1CCN(c2ccc(CNc3ccc(OCc4ccc(C(F)F)nc4)nn3)cc2F)CC1 [Example 1.3] | 1.6 nM
CC(=O)N1CCN(c2ccc(CNc3ccc(OCc4ccc(C(F)F)nc4)nn3)c(F)c2)CC1 [Example 1.4] | 2.8 nM
CN1CC2(CC1=O)CN(c1ccc(CNc3ccc(OCc4ccc(C(F)F)nc4)nn3)cc1)C2 [Example 1.5] | 2 nM
CC(=O)N1CCC2(CC1)CN(c1ccc(CNc3ccc(OCc4ccc(C(F)F)nc4)nn3)cc1)C2 [Example 1.6] | 8.7 nM
CC(=O)N1CCN(c2ccc(CNc3ccc(OCc4ccc(C(F)F)nc4)nn3)cc2)CC1(C)C [Example 1.7] | 12.4 nM
CC(=O)N1CCN(c2ccc(CNc3ccc(OCc4ccc(C(F)F)nc4)nn3)cc2)CC1 [Example 3, 1-[4-(4-{[(6-{[6-(Difluoromethyl)pyridin-3-yl]methoxy}pyridazin-3-yl)amino]methyl}-phenyl)piperazin-1-yl]ethan-1-one] | 1.9 nM
CC(=O)N1CC[C@@H]2CN(c3ccc(CNc4ccc(OCc5ccc(C(F)(F)F)nc5)nn4)cc3)C[C@@H]2CC1 [Example 4] | 7.1 nM
CC(=O)N1C[C@@H]2[C@H](C1)[C@H]1CN(c3ccc(CNc4ccc(OCc5ccc(C(F)(F)F)nc5)nn4)cc3)C[C@@H]21 [Example 5, 1-((3aR,3bS,6aR,6bS)-5-(4-(((6-((6-(trifluoromethyl)pyridin-3-yl)methoxy)pyridazin-3-yl)amino)methyl)phenyl)octahydrocyclobuta[1,2-c:3,4-c′]dipyrrol-2(1H)-yl)ethan-1-one] | 7.5 nM

Tested on: LPA levels
Assay: not given
Settings: as disclosed in C. Kuttruff, et al.; cited from earlier work

Compound | LPA levels in vivo
O=C(NC[C@@H]1[C@H]2CN(C(=O)OCc3cc(C(F)(F)F)cc(C(F)(F)F)c3)C[C@@H]12)c1ccc2[nH]nnc2c1 | significantly reduces
